Measurements taken from ChEMBL document CHEMBL1201862, “PubChem BioAssay data set” (2004).
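Grown in 96-well plates, cells were treated for 48 hours with each compound at five concentrations. Insufficient inhibition: endpoint recorded as highest concentration tested. GI50 is the concentration that inhibits growth by half.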 Activity calls are given as the source filed them. Rule as the data show it: active = GI50 up to about 1.1 µM and inactive = higher.

What was measured:
Assay in all cases: growth of human tumour cells (NCI), 48 h
U-251 = system: U-251
SK-OV-3 = system: SK-OV-3
LOX IMVI = system: LOX IMVI
CAKI-1 = system: CAKI-1
MOLT-4 = system: MOLT-4
HOP-92 = system: HOP-92
OVCAR-8 = system: OVCAR-8
K562 = system: K562
XF498 = system: XF498
DMS-273 = system: DMS-273
SNB-19 = system: SNB-19
SK-MEL-28 = system: SK-MEL-28
NCI-H460 = system: NCI-H460
DMS-114 = system: DMS-114
NCI-H226 = system: NCI-H226
KM12 = system: KM12
SF-295 = system: SF-295
HOP-62 = system: HOP-62
HL-60 = system: HL-60
RXF 393 = system: RXF 393
ACHN = system: ACHN
UO-31 = system: UO-31
COLO 205 = system: COLO 205
SW-620 = system: SW-620
M14 = system: M14
OVCAR-3 = system: OVCAR-3
LXFL 529 = system: LXFL 529
HCT-15 = system: HCT-15
SK-MEL-5 = system: SK-MEL-5
NCI-H23 = system: NCI-H23
Malme-3M = system: Malme-3M
EKVX = system: EKVX
HT-29 = system: HT-29
A549 = system: A549
OVCAR-4 = system: OVCAR-4
SR = system: SR
HOP-18 = system: HOP-18
SN12C = system: SN12C
A498 = system: A498
SF-268 = system: SF-268
TK-10 = system: TK-10
IGROV-1 = system: IGROV-1
DLD-1 = system: DLD-1
HCT-116 = system: HCT-116
RPMI-8226 = system: RPMI-8226
786-0 = system: 786-0
M19-MEL = system: M19-MEL
UACC-62 = system: UACC-62
HCC 2998 = system: HCC 2998
OVCAR-5 = system: OVCAR-5
NCI-H522 = system: NCI-H522
SF-539 = system: SF-539
UACC-257 = system: UACC-257
SNB-78 = system: SNB-78
SNB-75 = system: SNB-75
KM-20L2 = system: KM-20L2
CCRF-CEM = system: CCRF-CEM
SK-MEL-2 = system: SK-MEL-2

Measured: GI50

Cc1cc(C)nc(NS(=O)(=O)c2ccc(Nc3c4ccccc4nc4c(C(=O)Nc5ccc(S(=O)(=O)Nc6cc(C)on6)cc5)cccc34)cc2)n1
> 100 µM: HCT-15
inactive: U-251 19.8 µM | SK-OV-3 27.1 µM | LOX IMVI 19.8 µM | CAKI-1 21.9 µM | MOLT-4 24.8 µM | HOP-92 18.7 µM | OVCAR-8 18.4 µM | K562 23.2 µM | XF498 22.5 µM | DMS-273 23.8 µM | SNB-19 24.2 µM | SK-MEL-28 23.6 µM | NCI-H460 25.1 µM | DMS-114 19.1 µM | NCI-H226 21 µM | KM12 20 µM | SF-295 22.8 µM | HOP-62 21.2 µM | HL-60 22.8 µM | RXF 393 20.9 µM | ACHN 35.2 µM | UO-31 26.4 µM | COLO 205 17.7 µM | SW-620 23.4 µM | M14 20.8 µM | OVCAR-3 17.7 µM | LXFL 529 17.9 µM | SK-MEL-5 18.7 µM | NCI-H23 22.1 µM | Malme-3M 24.2 µM | EKVX 26.2 µM | HT-29 19.9 µM | A549 34.7 µM | OVCAR-4 22.6 µM | SR 27.5 µM | HOP-18 20.4 µM | SN12C 24.5 µM | A498 19.2 µM | SF-268 24.2 µM | TK-10 26.8 µM | IGROV-1 30.4 µM | DLD-1 28.1 µM | HCT-116 16 µM | RPMI-8226 22 µM | 786-0 18.5 µM | M19-MEL 23.4 µM | UACC-62 17.8 µM | HCC 2998 16.8 µM | OVCAR-5 24.3 µM | NCI-H522 14.7 µM | SF-539 16 µM | UACC-257 25.5 µM | SNB-78 30.9 µM | SNB-75 32.3 µM | KM-20L2 21 µM

CC1=CCC2(C#N)CCC1C2O (centres undefined)
> 100 µM: HCT-15
inactive: U-251 > 100 µM | SK-OV-3 > 100 µM | LOX IMVI > 100 µM | CAKI-1 > 100 µM | MOLT-4 > 100 µM | OVCAR-8 > 100 µM | K562 > 100 µM | XF498 > 100 µM | DMS-273 19.7 µM | SNB-19 > 100 µM | SK-MEL-28 > 100 µM | NCI-H460 > 100 µM | DMS-114 > 100 µM | NCI-H226 > 100 µM | KM12 > 100 µM | SF-295 > 100 µM | HOP-62 > 100 µM | HL-60 > 100 µM | RXF 393 > 100 µM | ACHN > 100 µM | UO-31 > 100 µM | COLO 205 > 100 µM | M14 > 100 µM | OVCAR-3 > 100 µM | LXFL 529 > 100 µM | SK-MEL-5 > 100 µM | Malme-3M > 100 µM | EKVX > 100 µM | HT-29 > 100 µM | A549 > 100 µM | OVCAR-4 > 100 µM | CCRF-CEM > 100 µM | SR > 100 µM | HOP-18 > 100 µM | SN12C > 100 µM | A498 > 100 µM | SF-268 > 100 µM | TK-10 > 100 µM | IGROV-1 > 100 µM | DLD-1 > 100 µM | SK-MEL-2 > 100 µM | HCT-116 > 100 µM | RPMI-8226 > 100 µM | 786-0 64.1 µM | M19-MEL > 100 µM | UACC-62 > 100 µM | HCC 2998 > 100 µM | OVCAR-5 > 100 µM | NCI-H522 > 100 µM | SF-539 > 100 µM | UACC-257 > 100 µM | SNB-78 > 100 µM | SNB-75 > 100 µM | KM-20L2 39.4 µM

CC(=O)OC12/C(=N/O)CCCCCC1c1ccccc12 (centres undefined)
inactive: U-251 > 100 µM | SK-OV-3 > 100 µM | LOX IMVI > 100 µM | MOLT-4 25.4 µM | OVCAR-8 > 100 µM | K562 39.2 µM | XF498 62.8 µM | DMS-273 > 100 µM | SNB-19 > 100 µM | SK-MEL-28 > 100 µM | NCI-H460 > 100 µM | DMS-114 41.7 µM | NCI-H226 > 100 µM | KM12 > 100 µM | SF-295 96.8 µM | HOP-62 > 100 µM | HL-60 64.3 µM | RXF 393 29.6 µM | ACHN 95.3 µM | UO-31 27.5 µM | COLO 205 > 100 µM | SW-620 > 100 µM | LXFL 529 66.8 µM | SK-MEL-5 > 100 µM | NCI-H23 70.8 µM | Malme-3M > 100 µM | EKVX 68.1 µM | HT-29 > 100 µM | A549 > 100 µM | OVCAR-4 60.8 µM | CCRF-CEM 26.4 µM | SR 30.4 µM | HOP-18 > 100 µM | SN12C > 100 µM | SF-268 > 100 µM | TK-10 > 100 µM | SK-MEL-2 > 100 µM | HCT-116 84.7 µM | RPMI-8226 33.6 µM | 786-0 > 100 µM | M19-MEL > 100 µM | UACC-62 95.5 µM | NCI-H522 31.2 µM | UACC-257 74.8 µM | SNB-78 36.3 µM | SNB-75 42.8 µM | KM-20L2 > 100 µM
> 100 µM: HCT-15
